Laboratory results reported in patent US20120045764A1, “METHOD OF EXPANDING HUMAN HEPATOCYTES IN VIVO” (priority 2009, published 2012).
“And” between values parts separate entries of the source, which are not always exact repeats. Equal entries are not always repeated. “Also recorded” adds a separate entry of the source.

Legend:
[1] = test system: human drug metabolism genes; assay: Induction of mRNAs of drug metabolism genes in cultured hepatocytes from humanized mice (real-time PCR); type: cell-based; details: cultured hepatocytes from chimeric mice, mRNA
Description: (§1) Cultures of isolated hepatocytes were established and exposed to prototypical inducers of the cytochrome P450 genes. […]. In addition to the mRNA expression levels of human drug metabolism genes, the enzymatic activity of the human CYP1A and 3A family members were measured. Ethoxyresorufin-O-deethylase activity (EROD) is known to be mediated by CYP1A1 and 1A2 in human liver. […] Thus, hepatocytes from repopulated FRG livers were indistinguishable from normal human adult hepatocytes in these standard drug metabolism assays.

CYP1A1 and 1A2 = assay: Ethoxyresorufin-O-deethylase (EROD) activity in cultured hepatocytes from humanized mice; type: cell-based, human; details: humanized mouse liver cells in culture
Description: as §1

FRG mice [2] = assay: Maintenance of FRG mice on NTBC in drinking water and NTBC withdrawal; type: in vivo, mouse
Description: To generate an immunodeficient Fah^−/− mouse strain completely lacking T cells, B cells and NK cells, but without a DNA repair defect, Fah^−/−/Rag2^−/−/Il2rg^−/− (FRG) mice were generated. Male Fah^−/−129S4 mice (Grompe et al. Genes Dev. 7:2298-2307, 1993) were crossed with female Rag2^−/−/Il2rg^−/− mice (Taconic). All animals were maintained with drinking water containing 2-(2-nitro-4-trifluoro-methyl-benzoyl)-1,3 cyclohexanedione (NTBC) at a concentration of 1.6 mg/L (Grompe et al. Nat. Genet. 10:453-460, 1995). To confirm the genotypes of each animal, PCR-based genotyping was carried out on 200 ng genomic DNA isolated from toe tissue (Grompe et al. Genes Dev. 7:2298-2307, 1993; Traggiai et al. Science 304:104-107, 2004).

CYP3A4 [3] = assay: Conversion of testosterone to 6-beta-hydroxyltestosterone in cultured hepatocytes from humanized mice; details: cultured hepatocytes from repopulated FRG livers
Source text: (§2) The basal expression and induction of human liver specific genes in chimeric mice was examined. […] Primers, obtained from Applied Biosystems, were specific for human CYP1A1 (Hs00153120_m1), CYP1A2 (Hs00167927_m1), CYP3A4 (Hs00430021_m1), CYP3A7 (Hs00426361_a1), CYP2B6 (Hs00167937_g1), CYP2D6 (Hs00164385_a1), Multidrug resistance associated protein MRP2 (Hs00166123_m1), Bile Salt export Pump BSEP, (Hs00184829_m1), CAR (Hs00231959_m1) Albumin (Hs00609411_m1), HNF4α (Hs00230853_m1), Cyclophillin (Hs99999904_m1) and mouse actin (Ma00607939_s1).
Cultures of isolated hepatocytes were established and exposed to prototypical inducers of the cytochrome P450 genes. […] In addition to the mRNA expression levels of human drug metabolism genes, the enzymatic activity of the human CYP1A and 3A family members were measured. Ethoxyresorufin-O-deethylase activity (EROD) is known to be mediated by CYP1A1 and 1A2 in human liver.

CYP3A4 [4] = assay: Induction of CYP3A4 mRNA in hepatocytes from humanized mice (real-time PCR); details: relative to non-induced cultures; FIG. 7B
Source text: as §2

FRG mice [5] = assay: Liver repopulation of FRG mice treated with anakinra (blood human albumin by ELISA); type: in vivo, mouse; details: for blood level of human albumin, Elisa #1: Experiment #3, serial transplantation
Description: Small amounts of blood were collected once a week from the left saphenous vein with a heparinized blood capillary. After 1,000 or 10,000× dilution with Tris-buffered saline, human albumin concentration was measured with the Human Albumin ELISA Quantitation Kit (Bethyl) according to the manufacturer's protocol.
One million human hepatocytes from the same batch were injected intrasplenically into six FRG mice. In three mice, anakinra (2 mg) was administered intraperitoneally during surgery and then once daily for six additional doses (total dose=14 mg over 7 days). One month after transplantation, blood human albumin was measured by ELISA. […] All three anakinra-treated mice had much higher albumin levels (130, 165 and 200 μg/ml).
Additional experiments validated these initial observations. […] Cohorts of genetically identical mice were injected with the same batch of human cells and were either untreated (Con) or treated with anakinra (Ana). Different dosing regimens of anakinra were used and different lengths of administration were tested. High dose anakinra (Hi) was 2 mg/mouse/day and low dose (lo) was 0.4 mg/mouse/day. The drug was injected daily for either 3 days (×3) or 7 days (×7). Blood levels of human albumin were measured by ELISA to ascertain the degree of human repopulation.

O=c1cc(-c2ccccc2)oc2ccc3ccccc3c12 [BNF, beta-naphthoflavone]
pattern of genes induced [1]: as expected from normal human cells
EROD activity after prior exposure to inducer (CYP1A1 and 1A2): specifically and robustly induced

O=C1CCCC(=O)C1C(=O)c1ccc(C(F)(F)F)cc1[N+](=O)[O-] [NTBC, 2-(2-nitro-4-trifluoro-methyl-benzoyl)-1,3 cyclohexanedione]
death after NTBC withdrawal (FRG mice [2]; FRG mice, gradual hepatocellular injury after withdrawal): 4-8 weeks
growth and fertility of FRG mice (FRG mice [2]; NTBC continuously in drinking water, 1.6 mg/L): grew well and were fully fertile

CCC1(c2ccccc2)C(=O)NC(=O)NC1=O [PB, phenobarbital]
conversion of testosterone to 6-beta-hydroxyltestosterone after prior exposure to inducer (CYP3A4 [3]): specifically induced
induction of CYP3A4 mRNA (CYP3A4 [4]): even more striking than at the enzyme level

anakinra: recombinant, non-glycosylated version of human IL-1RA (IL-1 receptor antagonist), 153 amino acids, SEQ ID NO: 21
blood level of human albumin, Elisa #2 (FRG mice [5]; Experiment #1, primary transplantation, high dose (2 mg/mouse/day) x7): 5.6 mg and 4.8 mg
blood level of human albumin, Elisa #1 (FRG mice [5]; Hi (2 mg/mouse/day) x3): 52 μg-Hi x3 and 60 μg-Hi x3
blood level of human albumin, Elisa #1 (FRG mice [5]; Hi (2 mg/mouse/day) x7): 38 μg-Hi x7 and 56 μg-Hi x7
blood human albumin (FRG mice [5]; FRG mice, one million human hepatocytes intrasplenically, anakinra 2 mg i.p. during surgery then once daily for six doses (total 14 mg over 7 days), one month after transplantation): 130 µg/mL and 165 µg/mL and 200 µg/mL
hepatocyte repopulation (in words) (FRG mice [5]; anakinra-treated versus untreated FRG mice): remarkably enhanced; also recorded: consistently had much higher levels of repopulation
enhanced repopulation versus untreated mice (FRG mice [5]; on average, three independent tests of Table 6): approximately 100 fold
percentage of highly humanized FRG mice after transplantation of human hepatocytes (FRG mice [5]; with anakinra treatment versus without): significantly higher
